Patent US20160009772A1, “CELL PENETRATING PEPTIDES WHICH BIND IRF5” (priority 2012, published 2016)
Where two headings read alike, the source gives them in different places.

Legend:
[1] = target: T1, IRF5 (222-467, S430D) (Homo sapiens, UniProt Q13568, S440D); assay: FRET IRF5 dimerization inhibition assay (TR-FRET), S430D construct; format: binding
T1 construct: 250 nM His tag IRF5(222-467, S430D); 100 nM biotin tag IRF5(222-467, S430D)
Experimental: (§1) The following steps may then be performed: • 1) Prepare 100 nM of biotin-IRF5(S430D) (0.96 mg/ml or 32 uM,) and 250 nM His-IRF5(S430D) (1.51 mg/ml or 51 uM,) in AB1 • 2) Add 50 ul/well of solution in (1) into peptide solutions in 96-well PP plates as described above and incubate at RT for 20 min. • 3) Prepare 10 nM Eu-labeled streptavidin and 80 nM APC-labeled anti-His Ab in AB2 (AB1 w/o DTT) containing 5% DMSO and add 17 ul/well into solutions in (4). • 4) Transfer 30 ul/well into 384-well PP plate (Matrix) and incubate at 40 C for 1 day.
(§2) To test the ability of compounds to inhibit IRF5 dimerization a time-resolved fluorescence resonance energy transfer (TR-FRET) was developed. Binding of recombinant His tagged IRF5 (222-467 constructs) to recombinant biotin tagged IRF5 was measured by FRET between Europium labeled anti-GST antibody and Stretavidin-conjugated Allophycocyanin. […] The IRF5 S430 and WT (222-467) constructs were then used to test the ability of compounds to inhibit dimerization. […] Fifty microliters per well of 100 nM biotin tag IRF5(222-467, S430D) and 250 nM His tag IRF5(222-467, S430D) in Assay Buffer (50 mM Tris-HCl, pH 7.4, 100 mM NaCl, 1 mM DTT and 0.2 mg/ml BSA) were added. The samples were incubated at room temperature for 20 min. Seventeen microliters per well of detection solution containing 10 nM europium (Eu) conjugated streptavidin and 80 nM allophycocyanin (APC) conjugated anti-His antibody (Columbia Biosciences) in Assay Buffer (without DTT) were added. The samples were incubated at room temperature for 60 min followed by overnight incubation at 40 C and 30 ul per well were transferred to 384-well polystyrene plates (Matrix, Thermal Scientific) in duplicates. Assay signals were monitored by reading excitation at 340 nm and emission fluorescence at 615 nm and 665 nm on an Envision reader. TR-FRET signals were calculated by the ratio of acceptor to donor signals after subtracting both blank and donor cross-talk values from acceptor signal (Huang, K S and Vassilev, L T, Methods Enzymol., 399, 717-728 (2005)). The data were processed in Excel XLfit and the IC50 values were calculated using a nonlinear curve-fitting algorithm (four parameter equation). The data represent an average of 3 independent experiments (each run in triplicates) and the reported errors represent standard deviation (s.d.).

[2] = target: T2, Wild type IRF5 (222-467) (Homo sapiens, UniProt Q13568); assay: FRET IRF5 dimerization inhibition assay (TR-FRET), WT construct; format: binding
T2 construct: S430D phosphomimetic construct of IRF5 (222-467) as well as WT (222-467)
T2 sequence (Q13568 232-477): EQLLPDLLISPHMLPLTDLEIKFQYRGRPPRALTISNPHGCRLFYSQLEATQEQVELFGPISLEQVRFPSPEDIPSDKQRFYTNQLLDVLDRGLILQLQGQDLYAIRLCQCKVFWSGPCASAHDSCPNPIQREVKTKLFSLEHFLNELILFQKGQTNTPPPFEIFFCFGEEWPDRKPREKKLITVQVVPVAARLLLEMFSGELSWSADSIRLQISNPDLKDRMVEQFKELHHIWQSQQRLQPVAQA
Experimental: as §1, §2

[3] = test system: NFκB nuclear translocation in HeLa cells; assay: NFκB translocation assay (TNFα mediated, high content imaging); format: cell-based; conditions: 50 μM peptide; TNFα induced NFkB translocation in HeLa cells
Experimental: The selectivity of the CPP's over NFκB was determined using a high content screening assay wherein TNFα mediated nuclear translocation of NFκB was determined by imaging.
HeLa cells were plated at 5000 cells/well in 96 well Perkin Elmer ViewPlates and incubated overnight at 37 C. Media was aspirated and compounds pre-diluted in 0.05% BSA Hanks/20 mM HEPES were added in duplicate at various concentrations for 30 minutes. Wells were stimulated with 20 μl of 150 ng/ml TNFα for 30 minutes at 37 C. Wells were aspirated and the cells were fixed with 3.7% formaldehyde solution for 15 minutes at room temperature. The fixative was removed and the plates were washed with PBS. The NFkB translocation assay, based upon detection of an antibody to p65 (Thermo-Fisher), was completed and read on the Perkin Elmer Operetta at 40×.

[4] = test system: THP-1 cells; assay: Cytotoxicity (cell titer glo) as headed in Table 3; format: cell-based, human; conditions: cytotoxicity defined as greater than 40% loss of cells
Experimental: THP-1 cells obtained from ATCC were seeded at 50 k cells/100 μl/well in a 96 well plate (Corning Cat#3340). Peptides were dissolved in DMSO at 10 mM as stock solution, then 1:10 in water at 1 mM, mix well. R848 (Enzo Cat#ALX-420-038-M005) was dissolved in DMSO (Sigma Cat#D2650) at 10 mM. […] R848 was added to the 96-well cell plate at a final concentration of 10 μM, and cells were incubated at 37° C. for 24 h. The supernatant was tested for IL6 by Alphalisa (Perkin Elmer AL233C) as per manufacturer's instructions. Viability of the cells was measured by cell titer glo (Promega).

[5] = Table 1, S430D phosphomimetic construct of IRF5 (222-467), average of 3 experiments ± s.d., read-out: S430D IC50
[6] = Table 1, WT IRF5 (222-467), average of 3 experiments ± s.d., read-out: WT IC50
[7] = Table 2, WT IRF5 (222-467), read-out: WT IC50

T1 sequence (Q13568 232-477 S440D): as the sequence (Q13568 232-477) above, with S209D counted along it

| Compound | IC50 [1, 5] | IC50 [2, 6] | NFkB selectivity (50 μM) [3] | Cytotoxicity in THP-1 cells at 10 μM [4] | IC50 [2, 7] | other results |
| --- | --- | --- | --- | --- | --- | --- |
| CSCC[C@H](NC(C)=O)C(=O)N[C@@H](C)C(=O)N[C@@H](CC(N)=O)C(=O)N[C@@H](CC(C)C)C(=O)NCC(=O)N[C@@H](Cc1ccc(O)cc1)C(=O)N[C@@H](Cc1c[nH]c2ccccc12)C(=O)N[C@@H](CC(C)C)C(=O)N[C@@H](Cc1ccc(O)cc1)C(=O)N[C@@H](C)C(=O)N[C@@H](CC(C)C)C(=O)N[C@@H](Cc1ccccc1)C(=O)N[C@@H](CC(C)C)C(=O)N[C@H](C(=O)N[C@@H](CCSC)C(=O)N[C@H](C(=O)N[C@H](C(=O)N[C@@H](CC(=O)O)C(=O)N[C@H](C(=O)NCC(=O)N[C@@H](CC(C)C)C(=O)N[C@@H](Cc1ccccc1)C(=O)N[C@@H](CCCCN)C(=O)N[C@@H](CCCCN)C(=O)N[C@@H](CCCNC(=N)N)C(=O)N1CCC[C@H]1C(=O)N[C@@H](CCCCN)C(=O)N1CCC[C@H]1C(N)=O)C(C)C)[C@@H](C)O)C(C)C)[C@@H](C)O [SEQ ID NO 7] | 34.2 ± 5.5 µM | 41.9 ± 6.4 µM | No inhibition | None |  |  |
| Ac-YLKFIPLKRAIWLIK-NH2 [SEQ ID NO 23, Ac-YLKFIPLKRAIWLIK-NH2, reference compound] |  |  |  |  |  | IC50 [1]: > 75 µM; affinity in FRET dimerization assay ([1]; S430D and WT IRF5 (222-467) constructs): does not display any affinity; IC50 [2]: > 75 µM |
| CSCC[C@H](NC(C)=O)C(=O)N[C@@H](C)C(=O)N[C@@H](CC(N)=O)C(=O)N[C@@H](CC(C)C)C(=O)NCC(=O)N[C@@H](Cc1ccc(O)cc1)C(=O)N[C@@H](Cc1c[nH]c2ccccc12)C(=O)N[C@@H](CC(C)C)C(=O)N[C@@H](CC(C)C)C(=O)N[C@@H](C)C(=O)N[C@@H](CC(C)C)C(=O)N[C@@H](Cc1ccccc1)C(=O)N[C@H](C(=O)N[C@H](C(=O)N[C@@H](Cc1ccc(O)cc1)C(=O)N[C@@H](Cc1c[nH]c2ccccc12)C(=O)N[C@H](C(=O)N[C@@H](CC(=O)O)C(=O)N[C@@H](CC(C)C)C(=O)NCC(=O)N[C@@H](CC(C)C)C(=O)N[C@H](C(=O)N[C@@H](CCCCN)C(=O)N[C@@H](CCCCN)C(=O)N[C@@H](CCCNC(=N)N)C(=O)N1CCC[C@H]1C(=O)N[C@@H](CCCCN)C(=O)N1CCC[C@H]1C(N)=O)C(C)C)[C@@H](C)O)[C@@H](C)O)C(C)C [SEQ ID NO 6] | 15.4 ± 5.8 µM | 15.3 ± 4.8 µM | No inhibition | None |  |  |
| Ac-IRLQISNPYLKFIPLKRAIWLIK-NH2 [SEQ ID NO 13] |  |  | No inhibition | None |  |  |
| Ac-PFPPLPIGEEAPKDDMVRFFKDLHQYLNVV-NH2 [SEQ ID NO 10] |  |  |  |  | 0.35 µM |  |
| CSCC[C@H](NC(C)=O)C(=O)N[C@@H](C)C(=O)N[C@@H](CC(N)=O)C(=O)N[C@@H](CC(C)C)C(=O)NCC(=O)N[C@@H](Cc1ccc(O)cc1)C(=O)N[C@@H](Cc1c[nH]c2ccccc12)C(=O)N[C@@H](CC(C)C)C(=O)N[C@@H](C)C(=O)N[C@@H](CC(C)C)C(=O)N[C@@H](CC(C)C)C(=O)N[C@@H](Cc1ccccc1)C(=O)N[C@H](C(=O)N[C@H](C(=O)N[C@@H](CCSC)C(=O)N[C@@H](Cc1c[nH]c2ccccc12)C(=O)N[C@H](C(=O)N[C@@H](CC(=O)O)C(=O)N[C@H](C(=O)NCC(=O)N[C@@H](CC(C)C)C(=O)N[C@@H](Cc1ccccc1)C(=O)N[C@@H](CCCCN)C(=O)N[C@@H](CCCCN)C(=O)N[C@@H](CCCNC(=N)N)C(=O)N1CCC[C@H]1C(=O)N[C@@H](CCCCN)C(=O)N1CCC[C@H]1C(N)=O)C(C)C)[C@@H](C)O)[C@@H](C)O)C(C)C [SEQ ID NO 5] | 26.6 ± 5.4 µM | 22.4 ± 6.2 µM | No inhibition | None |  |  |
| Ac-IRLQISNPDLKDLMVQWFKDGGPSSGAPPPS-NH2 [SEQ ID NO 9] |  |  |  |  | 1.4 µM |  |
| Ac-MIILIISFPKHKDWKVILVK-NH2 [SEQ ID NO 14] |  |  | No inhibition | None |  |  |
| CSCC[C@H](NC(C)=O)C(=O)N[C@@H](C)C(=O)N[C@@H](CC(N)=O)C(=O)N[C@@H](CC(C)C)C(=O)NCC(=O)N[C@@H](Cc1ccc(O)cc1)C(=O)N[C@@H](Cc1c[nH]c2ccccc12)C(=O)N[C@@H](CC(C)C)C(=O)N[C@@H](CC(C)C)C(=O)N[C@@H](CC(C)C)C(=O)N[C@@H](CC(C)C)C(=O)N[C@@H](Cc1ccccc1)C(=O)N[C@H](C(=O)N[C@H](C(=O)N[C@@H](CCSC)C(=O)N[C@@H](Cc1c[nH]c2ccccc12)C(=O)N[C@H](C(=O)N[C@@H](CC(=O)O)C(=O)N[C@H](C(=O)NCC(=O)N[C@@H](CC(C)C)C(=O)N[C@@H](C)C(=O)N[C@@H](CCCCN)C(=O)N[C@@H](CCCCN)C(=O)N[C@@H](CCCNC(=N)N)C(=O)N1CCC[C@H]1C(=O)N[C@@H](CCCCN)C(=O)N1CCC[C@H]1C(N)=O)C(C)C)[C@@H](C)O)[C@@H](C)O)C(C)C [SEQ ID NO 4] | 26.4 ± 4.5 µM | 19.5 ± 4 µM | No inhibition | None |  |  |
| Ac-KDLMVQWFKDGGPSSGAPPPS-NH2 [SEQ ID NO 8] |  |  |  |  | 0.79 µM | IC50 ([1]; Table 2, S430D phosphomimetic construct of IRF5 (222-467), read-out: S430D IC50): 1.68 µM |
